Drawing on patent US9765035B2 (priority 2013, dated 2017), this text covers IC50 for 39 compounds.

In this experiment the target is human PRMT6 (Homo sapiens, UniProt Q96LA8). As to the kind of experiment: biochemical. An excerpt:
General Materials. S-adenosylmethionine (SAM), S-adenosylhomocysteine (SAH), bicine, Tween20, dimethylsulfoxide (DMSO), bovine skin gelatin (BSG), sodium butyrate and Tris(2-carboxyethyl)phosphine hydrochloride solution (TCEP) were purchased from Sigma-Aldrich at the highest level of purity possible. ^3H-SAM was purchase from American Radiolabeled Chemicals with a specific activity of 80 Ci/mmol. 384-well streptavidin Flashplates were purchased from PerkinElmer.
Substrates. Peptide representative of human histone H4 residues 36-50 was synthesized with an N-terminal linker-affinity tag motif and a C-terminal amide cap by 21st Century Biochemicals. The peptide was purified by high-performance liquid chromatography (HPLC) to greater than 95% purity and confirmed by liquid chromatography mass spectrometry (LC-MS). The sequence was Biot-Ahx-[…]-amide and contained a monomethylated lysine at position 44 (SEQ ID NO.:5).
Molecular Biology: Full-length human PRMT6 (NM_018137.2) transcript clone was amplified from an HEK 293 cDNA library, incorporating a flanking 5′ sequence encoding a FLAG tag ([…]) (SEQ ID NO.:6) fused directly to Ser 2 of PRMT6 and a 3′ sequence encoding a hexa His sequence (HHHHHH) (SEQ ID NO.: 17) fused directly to Asp 375. The amplified gene was subcloned into pFastBacMam (Viva Biotech).
Protein Expression. Recombinant baculovirus were generated according to Bac-to-Bac kit instructions (Life Technologies). […] Infections were carried out at 37° C. for 48 hours, harvested by centrifugation, and stored at −80° C. for purification.
Protein Purification. […] Column was washed with 20 mM imidazole in the same buffer and Flag-PRMT6-His was eluted with 150 mM imidazole. Pooled fractions were dialysed against buffer Ni-A and further purified by anti-flag M2 affinity chromatography. Flag-PRMT6-His was eluted with 200 ug/ml FLAG peptide in the same buffer. Pooled fractions were dialysed in 20 mM Tris, 150 mM NaCl, 10% glycerol and 5 mM β-mercaptoethanol, pH 7.8. The purity of recovered protein was 95%.
General Procedure for PRMT6 Enzyme Assays on Peptide Substrates. The assays were all performed in a buffer consisting of 20 mM Bicine (pH=7.6), 1 mM TCEP, 0.005% BSG, and 0.002% Tween 20, prepared on the day of use. Compounds in 100% DMSO (1 ul) were spotted into a polypropylene 384-well V-bottom plates (Greiner) using a Platemate Plus outfitted with a 384-channel head (Thermo Scientific). DMSO (1 ul) was added to Columns 11, 12, 23, 24, rows A-H for the maximum signal control and 1 ul of SAH, a known product and inhibitor of PRMT6, was added to columns 11, 12, 23, 24, rows I-P for the minimum signal control. A cocktail (40 ul) containing the PRMT6 enzyme was added by Multidrop Combi (Thermo-Fisher). The compounds were allowed to incubate with PRMT6 for 30 min at room temperature, then a cocktail (10 ul) containing SAM and peptide was added to initiate the reaction (final volume=51 ul). The final concentrations of the components were as follows: PRMT6 was 1 nM, ^3H-SAM was 200 nM, non-radiolabeled SAM was 250 nM, peptide was 75 nM, SAH in the minimum signal control wells was 1 mM, and the DMSO concentration was 2%. The assays were stopped by the addition of non-radiolabeled SAM (10 ul) to a final concentration of 400 uM, which dilutes the ^3H-SAM to a level where its incorporation into the peptide substrate is no longer detectable. 50 ul of the reaction in the 384-well polypropylene plate was then transferred to a 384-well Flashplate and the biotinylated peptides were allowed to bind to the streptavidin surface for at least 1 hour before being washed once with 0.1% Tween20 in a Biotek EL×405 plate washer. The plates were then read in a PerkinElmer TopCount plate reader to measure the quantity of ^3H-labeled peptide bound to the Flashplate surface, measured as disintegrations per minute (dpm) or alternatively, referred to as counts per minute (cpm). […]

[1] abbreviates: biochemical evaluation, peptide substrate, read-out: PRMT6 IC50.
The mark [2] stands for this setting: single experiment or average of multiple experiments, read-out: PRMT6 biochemical evaluation (numerical).

Like-named read-outs stand apart in the source and are kept apart here.

human PRMT6, sequence (Q96LA8 with tags, fused parts or gaps): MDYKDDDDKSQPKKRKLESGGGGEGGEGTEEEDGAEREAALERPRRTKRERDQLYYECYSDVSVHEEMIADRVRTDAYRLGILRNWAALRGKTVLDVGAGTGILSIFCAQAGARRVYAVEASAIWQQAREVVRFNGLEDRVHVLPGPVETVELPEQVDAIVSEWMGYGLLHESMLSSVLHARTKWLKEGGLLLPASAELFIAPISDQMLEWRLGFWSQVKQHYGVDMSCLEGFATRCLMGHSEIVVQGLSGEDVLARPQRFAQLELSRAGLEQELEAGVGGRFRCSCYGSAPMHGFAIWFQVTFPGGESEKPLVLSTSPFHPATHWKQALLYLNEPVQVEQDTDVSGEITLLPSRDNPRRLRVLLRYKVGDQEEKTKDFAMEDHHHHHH

Consider `CN(CCN)Cc1n[nH]c2ccc(OCc3ccccc3)cc12` [Compound 1B], for which the IC50 under setting [1] was less than 100 nM and the IC50 under setting [2] turned out to be 9.44 nM.

As to `CC(C)COc1ccc2[nH]nc(CN(C)CCN)c2c1` [Compound 2, N1-((5-iso-butoxy-1H-indazol-3-yl)methyl)-N1-methylethane-1,2-diamine], the IC50 was 101 to 1000 nM under setting [1] and 113 nM under setting [2].

Take `CNCCN(C)Cc1nn(C)c2ccc(OCC(C)C)cc12` [Compound 3, N^1-((5-iso-butoxy-1-methyl-1H-indazol-3-yl)methyl)-N^1,N^2-dimethylethane-1,2-diamine]: the IC50 under setting [1] lay in the range of 101 to 1000 nM and the IC50 under setting [2] was found to be 514 nM.

Turning to `CNCCN(C)Cc1n[nH]c2ccc(OCCOC)cc12` [Compound 5, N^1-((5-(2-methoxyethoxy)-1H-indazol-3-yl)methyl)-N^1,N^2-dimethylethane-1,2-diamine], the IC50 by setting is: under setting [1], less than 100 nM; under setting [2], 84.8 nM.

For the compound `CNCCN(C)Cc1n[nH]c2ccc(OCCCOC)cc12` [Compound 6], the IC50 under setting [1] was less than 100 nM and the IC50 under setting [2] is 39.3 nM.

For the compound `CNCCN(C)Cc1n[nH]c2ccc(OCCc3ccccc3)cc12` [Compound 7], the IC50 was less than 100 nM under setting [1] and 6.78 nM under setting [2].

As for `CNCCN(C)Cc1n[nH]c2ccc(OCCC(C)C)cc12` [Compound 8], the IC50 is less than 100 nM under setting [1] and 56 nM under setting [2].

As for `CNCCN(C)Cc1n[nH]c2ccc(OC(C)Cc3ccccc3)cc12` (stereo not drawn) [Compound 9], the IC50 is, setting by setting: under setting [1], less than 100 nM; under setting [2], 13.9 nM.

Turning to `CNCCN(C)Cc1n[nH]c2ccc(Oc3ccccc3)cc12` [Compound 10, N^1,N^2-dimethyl-N^1-((5-phenoxy-1H-indazol-3-yl)methyl)ethane-1,2-diamine], the IC50 is, setting by setting: under setting [1], 101 to 1000 nM; under setting [2], 125 nM.

Turning to `CNCCN(C)Cc1n[nH]c2ccc(OC3CCCC3)cc12` [Compound 11], the IC50 is, setting by setting: under setting [1], less than 100 nM; under setting [2], 9.68 nM.

As for `CNCCN(C)Cc1n[nH]c2ccc(OCc3ccccn3)cc12` [Compound 12], the IC50 was less than 100 nM under setting [1] and 44.1 nM under setting [2].

Take `CNCCN(C)Cc1n[nH]c2ccc(OCc3ccc(C#N)cc3)cc12` [Compound 13]: the IC50 reads like this: under setting [1], less than 100 nM; under setting [2], 4.47 nM.

On to `CNCCN(C)Cc1n[nH]c2ccc(OCc3cccc(C#N)c3)cc12` [Compound 14], for which the IC50 was less than 100 nM under setting [1] and 5.29 nM under setting [2].

For `CNCCN(C)Cc1n[nH]c2ccc(OCc3cc[nH]n3)cc12` [Compound 17], the IC50 by setting is: under setting [1], less than 100 nM; under setting [2], 7.81 nM.

In the case of `CNCCN(C)Cc1n[nH]c2ccc(OC3CCCCC3)cc12` [Compound 18], the IC50 was less than 100 nM under setting [1] and 10.3 nM under setting [2].

Consider `CNCCN(C)Cc1n[nH]c2ccc(OCC(C)c3ccccc3)cc12` (stereo not drawn) [Compound 19], for which the IC50 is less than 100 nM under setting [1] and 19.3 nM under setting [2].

In the case of `CNCCN(C)Cc1n[nH]c2ccc(OCc3ccn(C)n3)cc12` [Compound 20], the IC50 runs as follows: under setting [1], less than 100 nM; under setting [2], 37.4 nM.

For `CNCCN(C)Cc1n[nH]c2cccc(OCc3ccccc3)c12` [Compound 21], the IC50 is less than 100 nM under setting [1] and 21.5 nM under setting [2].

For the compound `CNCCN(C)Cc1n[nH]c2ccc(Oc3cccc(OC)c3)cc12` [Compound 22], the IC50 reads like this: under setting [1], less than 100 nM; under setting [2], 33.1 nM.

Take `CNCCN(C)Cc1n[nH]c2ccc(OCc3ccc(C(C)=O)cc3)cc12` [Compound 23]: the IC50 reads like this: under setting [1], less than 100 nM; under setting [2], 96.6 nM.

For the compound `CNCCN(C)Cc1n[nH]c2ccc(Oc3ccccc3OC)cc12` [Compound 24], the IC50 under setting [1] lay in the range of 101 to 1000 nM and the IC50 under setting [2] was determined as 80.3 nM.

Consider `CNCCN(C)Cc1n[nH]c2ccc(OC3CCOC3)cc12` (stereo not drawn) [Compound 25, N^1,N^2-dimethyl-N^1-((5-((tetrahydrofuran-3-yl)oxy)-1H-indazol-3-yl)methyl)ethane-1,2-diamine], for which the IC50 was less than 100 nM under setting [1] and 5.05 nM under setting [2].

For the compound `CNCCN(C)Cc1n[nH]c2ccc(Oc3cccc(C)c3)cc12` [Compound 26], the IC50 under setting [1] is 101 to 1000 nM and the IC50 under setting [2] is 201 nM.

Consider `CNCCN(C)Cc1n[nH]c2ccc(Oc3cccc(Cl)c3)cc12` [Compound 27, N^1-((5-(3-chlorophenoxy)-1H-indazol-3-yl)methyl)-N^1,N^2-dimethylethane-1,2-diamine], for which the IC50 under setting [1] lay in the range of 101 to 1000 nM and the IC50 under setting [2] was determined as 53.7 nM.

`CNCCN(C)Cc1n[nH]c2ccc(Oc3cccc(C#N)c3)cc12` [Compound 28]: the IC50 by setting is: under setting [1], 101 to 1000 nM; under setting [2], 150 nM.

`CNCCN(C)Cc1n[nH]c2ccc(OC3CCOCC3)cc12` [Compound 29, N^1,N^2-dimethyl-N^1-((5-((tetrahydro-2H-pyran-4-yl)oxy)-1H-indazol-3-yl)methyl)ethane-1,2-diamine]: the IC50 is, setting by setting: under setting [1], 101 to 1000 nM; under setting [2], 178 nM.

On to `CNCCN(C)Cc1n[nH]c2ccc(Oc3ccccc3Cl)cc12` [Compound 30], for which the IC50 was 101 to 1000 nM under setting [1] and 131 nM under setting [2].

For the compound `CNCCN(C)Cc1n[nH]c2cccc(OCCC(C)C)c12` [Compound 31], the IC50 was 1010 to 3000 nM under setting [1] and 135 nM under setting [2].

In the case of `CNCCN(C)Cc1nn(C)c2ccc(OCc3ccc(C#N)cc3)cc12` [Compound 32], the IC50 under setting [1] was less than 100 nM and the IC50 under setting [2] was found to be 156 nM.

On to `CNCCN(C)Cc1n[nH]c2ccc(OCc3ccn(CC(C)C)n3)cc12` [Compound 33], for which the IC50 runs as follows: under setting [1], less than 100 nM; under setting [2], 1110 nM.

Take `CNCCN(C)Cc1c2cc(OCc3ccc(C#N)cc3)ccc2nn1C(C)C` [Compound 34]: the IC50 was 3010 to 10000 nM under setting [1] and 14.9 nM under setting [2].

As to `CNCCN(C)Cc1n[nH]c2ccc(OC)cc12` [Compound 35], the IC50 was 3010 to 10000 nM under setting [1] and 35.7 nM under setting [2].

On to `CNCCN(C)Cc1n[nH]c2ccc(O)cc12` [Compound 36, 3-((methyl(2-(methylamino)ethyl)amino)methyl)-1H-indazol-5-ol], for which the IC50 under setting [1] lay within 1010 to 3000 nM and the IC50 under setting [2] is 6670 nM.

Turning to `CNCCN(C)Cc1n[nH]c2ccc(Oc3ccc(C#N)cc3)cc12` [Compound 37], the IC50 was 101 to 1000 nM under setting [1] and 4840 nM under setting [2].

In the case of `CNCCN(C)Cc1nn(C2CCN(C(C)=O)CC2)c2ccc(OCc3ccc(C#N)cc3)cc12` [Compound 38], the IC50 runs as follows: under setting [1], 101 to 1000 nM; under setting [2], 1870 nM.

On to `CNCCN(C)Cc1n[nH]c2ccc(Oc3ccc(C(F)(F)F)cc3)cc12` [Compound 39], for which the IC50 by setting is: under setting [1], 101 to 1000 nM; under setting [2], 694 nM.

Consider `CNCCN(C)Cc1n[nH]c2cccc(OCCC(O)CO)c12` (stereo not drawn) [Compound 40], for which the IC50 by setting is: under setting [1], 1010 to 3000 nM; under setting [2], 223 nM.

Turning to `CNCCN(C)Cc1n[nH]c2cccc(OCCCC(O)CO)c12` (stereo not drawn) [Compound 41, 5-((3-((methyl(2-(methylamino)ethyl)amino)methyl)-1H-indazol-4-yl)oxy)pentane-1,2-diol], the IC50 runs as follows: under setting [1], 1010 to 3000 nM; under setting [2], 145 nM.

In the case of `CNCCN(C)Cc1n[nH]c2ccc(C(C)C)cc12` [Compound 42, N^1-((5-isopropyl-1H-indazol-3-yl)methyl)-N^1,N^2-dimethylethane-1,2-diamine], the IC50 under setting [1] is less than 100 nM and the IC50 under setting [2] amounted to 2340 nM.
